The supplement of paper PMC11061612

Columns and labels:
Assay in all cases: Bliss excess, mean over the matrix (fraction); higher = more synergy
[1] = system: SW1417 (Colorectal Carcinoma)
Summary of the method: (§1)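 Cell lines in DMEM/F12 or RPMI with 10% FBS were plated in 1536-well plates, held 24 hours at 37°C, 5% CO2, then given two-drug dose matrices for 72 hours (DMSO typically 0.2%). Viability was read by CellTiter-Glo 2.0 luminescence and scaled as inhibition from 0 (vehicle wells) to 1 (blank wells). Combination Emax is the second-highest inhibition in the matrix; Bliss excess is observed combination effect minus expected EA + EB − EA·EB, EA and EB being single-agent effects.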

[2] = system: DND-41 (T-Lymphoblastic Leukemia)
Summary of the method: as §1

[3] = system: HDQ-P1 (Breast Carcinoma)
Summary of the method: as §1

TC-71 (Ewing's Sarcoma) = system: TC-71 (Ewing's Sarcoma)
Summary of the method: as §1

[4] = system: BFTC-905 (Bladder Carcinoma)
Summary of the method: as §1

[5] = system: CAMA-1 (Breast Carcinoma)
Summary of the method: as §1

[6] = system: KM12 (Colorectal Carcinoma)
Summary of the method: as §1

[7] = system: K-562 (Chronic Myelogenous Leukemia)
Summary of the method: as §1

[8] = system: SW837 (Colorectal Carcinoma)
Summary of the method: as §1

[9] = system: TE-6 (Esophageal Squamous Cell Carcinoma)
Summary of the method: as §1

[10] = system: MKN28 (Gastric Carcinoma)
Summary of the method: as §1

[11] = system: NCI-H847 (Small Cell Lung Carcinoma)
Summary of the method: as §1

[12] = system: TOV-112D (Ovarian Carcinoma)
Summary of the method: as §1

MEL-JUSO (Melanoma) = system: MEL-JUSO (Melanoma)
Summary of the method: as §1

WIL2-NS (Non-Cancerous) = system: WIL2-NS (Non-Cancerous)
Summary of the method: as §1

[13] = system: NCI-H1792 (Lung Adenocarcinoma)
Summary of the method: as §1

[14] = system: KARPAS-45 (T-Lymphoblastic Leukemia)
Summary of the method: as §1

[15] = system: GR-ST (B-Lymphoblastic Leukemia)
Summary of the method: as §1

[16] = system: L-540 (Hodgkin's Lymphoma)
Summary of the method: as §1

[17] = system: EVSA-T (Breast Carcinoma)
Summary of the method: as §1

| Compound | Bliss excess [1] | Bliss excess [2] | Bliss excess [3] | Bliss excess (TC-71 (Ewing's Sarcoma)) | Bliss excess [4] | Bliss excess [5] | Bliss excess [6] | Bliss excess [7] | Bliss excess [8] | Bliss excess [9] | Bliss excess [10] | Bliss excess [11] | Bliss excess [12] | Bliss excess (MEL-JUSO (Melanoma)) | Bliss excess (WIL2-NS (Non-Cancerous)) | Bliss excess [13] | Bliss excess [14] | Bliss excess [15] | Bliss excess [16] | Bliss excess [17] |
| --- | --- | --- | --- | --- | --- | --- | --- | --- | --- | --- | --- | --- | --- | --- | --- | --- | --- | --- | --- | --- |
| Cc1c2c(nn1C)CSCc1cc(n(C)n1)CSc1cc(c3ccccc3c1)OCCCc1c(C(=O)O)n(C)c3c-2c(Cl)ccc13 [AZD5991] + CCN(CCO)CCCOc1ccc2c(Nc3cc(CC(=O)Nc4cccc(F)c4)[nH]n3)ncnc2c1 [AZD2811] (first compound max 1 µM, 7x7, partner max 1 µM) | -0.0139 | 0.0265 | -0.0283 | -0.0244 | 0.11 | 0.0743 | 0.058 | 0.086 | -0.0341 | 0.0482 | 0.0839 | 0.0011 | 0.0906 | 0.0389 | 0.0821 | 0.016 | -0.0409 | -0.0742 | 0.0788 | 0.0959 |
| COc1cccc(OCCCN)c1-c1cc(Nc2cnc(C#N)cn2)n[nH]1 [Prexasertib] + C=CCn1c(=O)c2cnc(Nc3ccc(N4CCN(C)CC4)cc3)nc2n1-c1cccc(C(C)(C)O)n1 [AZD1775] (first compound max 1 µM, partner max 1 µM) | 0.0443 | -0.0247 | 0.0861 | 0.0949 | 0.147 | 0.11 | 0.0787 | 0.0497 | 0.073 | 0.0995 | 0.0901 | 0.0809 | 0.137 | 0.0303 | 0.0513 | 0.0638 | 0.0553 | -0.0448 | -0.0185 | 0.0197 |
| C=CCn1c(=O)c2cnc(Nc3ccc(N4CCN(C)CC4)cc3)nc2n1-c1cccc(C(C)(C)O)n1 [AZD1775] + C[C@@H]1COCCN1C2=NC(=NC(=C2)C3(CC3)[S@](=N)(=O)C)C4=C5C=CNC5=NC=C4 [AZD6738] (first compound max 1 µM, partner max 10 µM) | -0.0253 | 0.0181 | -0.0038 | 0.0431 | 0.0665 | 0.0371 | 0.0228 | 0.0433 | 0.0057 | 0.0135 | 0.0597 | 0.0684 | 0.0714 | 0.0009 | 0.0269 | 0.0105 | 0.0465 | -0.0217 | -0.0091 | 0.033 |
| NC1(C(=O)N[C@@H](CCO)c2ccc(Cl)cc2)CCN(c2ncnc3[nH]ccc23)CC1 [Capivasertib] + CC(C)n1c(=O)n(C)c2cnc3cc(F)c(-c4ccc(OCCCN5CCCCC5)nc4)cc3c21 [AZD1390] (first compound max 10 µM, 7x7, partner max 0.3 µM) | -0.0394 | -0.0595 | -0.0442 | -0.0567 | -0.0329 | -0.0558 | -0.0399 | 0.0077 | -0.0461 | -0.134 | -0.0634 |  | -0.0276 | -0.0784 | -0.0379 | -0.0625 | -0.0374 | -0.0449 | 0.0167 | -0.0326 |
| COc1nnc2ccc(N3CCC(c4ccc(OCCN5CCN(C)C(=O)[C@H]5C)cc4)CC3)nn12 [AZD5153] + C=CCn1c(=O)c2cnc(Nc3ccc(N4CCN(C)CC4)cc3)nc2n1-c1cccc(C(C)(C)O)n1 [AZD1775] (first compound max 1 µM, partner max 1 µM) | -0.0254 | -0.0027 | -0.041 | 0.0354 | -0.0559 | -0.0121 | -0.0456 | -0.0718 | -0.0653 | -0.0166 | -0.0617 |  | -0.0434 | 0.0131 | -0.105 | -0.0428 | -0.0088 | -0.0897 | -0.0433 | -0.0108 |
| NC1(C(=O)N[C@@H](CCO)c2ccc(Cl)cc2)CCN(c2ncnc3[nH]ccc23)CC1 [Capivasertib] + Cn1cnc2c(F)c(Nc3ccc(Br)cc3Cl)c(C(=O)NOCCO)cc21 [Selumetinib] (first compound max 10 µM, 7x7, partner max 10 µM) | 0.0152 | 0.0293 | -0.0046 | 0.0203 | -0.0047 | 0.0187 | 0.016 | 0.0713 | -0.0357 | 0.0032 | -0.05 |  | 0.0272 | 0.0315 | 0.0482 | 0.0276 | 0.0796 | -0.0428 | -0.0345 | -0.0157 |
| Cn1cnc2c(F)c(Nc3ccc(Br)cc3Cl)c(C(=O)NOCCO)cc21 [Selumetinib] + CC(C)n1c(=O)n(C)c2cnc3cc(F)c(-c4ccc(OCCCN5CCCCC5)nc4)cc3c21 [AZD1390] (first compound max 10 µM, 7x7, partner max 0.3 µM) | -0.0094 | -0.0022 | -0.0456 | -0.0211 | -0.0074 | -0.0429 | -0.0376 | -0.0345 | -0.0343 | -0.0528 | -0.0463 |  | -0.0262 | -0.0291 | -0.0251 | -0.0075 | -0.026 | -0.0084 | -0.0407 | -0.0185 |
| CC(=O)c1c(C)c2cnc(Nc3ccc(N4CCNCC4)cn3)nc2n(C2CCCC2)c1=O [Palbociclib] + Cc1c2c(nn1C)CSCc1cc(n(C)n1)CSc1cc(c3ccccc3c1)OCCCc1c(C(=O)O)n(C)c3c-2c(Cl)ccc13 [AZD5991] (first compound max 10 µM, 7x7, partner max 1 µM) | -0.0089 | 0.0043 | -0.0396 | -0.0182 | -0.0167 | -0.0525 | -0.0194 | -0.0141 | -0.0582 | -0.0272 | -0.0385 |  | 0.0428 | -0.103 | -0.0608 | -0.0186 | -0.0071 | 0.0096 | -0.0063 | -0.117 |
| CCc1c2c(nc3ccc(O)cc13)-c1cc3c(c(=O)n1C2)COC(=O)[C@]3(O)CC [SN-38] + O=C(c1cc(Cc2n[nH]c(=O)c3ccccc23)ccc1F)N1CCN(C(=O)C2CC2)CC1 [Olaparib] (first compound max 0.3 µM, 7x7, partner max 10 µM) | 0.0174 | 0.0343 | 0.025 |  | 0.0451 | 0.0287 | -0.0102 | 0.0222 | 0.0302 |  | 0.0385 | 0.0304 | 0.0453 |  | 0.0736 | 0.0361 |  | -0.05 | 0.0196 | 0.0738 |
| CC(=O)c1c(C)c2cnc(Nc3ccc(N4CCNCC4)cn3)nc2n(C2CCCC2)c1=O [Palbociclib] + CC1(C)CCC(CN2CCN(c3ccc(C(=O)NS(=O)(=O)c4ccc(NCC5CCOCC5)c([N+](=O)[O-])c4)c(Oc4cnc5[nH]ccc5c4)c3)CC2)=C(c2ccc(Cl)cc2)C1 [Venetoclax] (first compound max 10 µM, 7x7, partner max 1 µM) | -0.0267 | -0.0292 | -0.0555 | -0.0129 | -0.046 | -0.0381 | -0.0041 | -0.0313 | -0.0671 | -0.0255 | -0.0461 |  | 0.0283 | -0.0309 | 0.0278 | -0.0103 | 0.0598 | 0.0074 | -0.0852 | 0.0048 |
| Cn1cnc2c(F)c(Nc3ccc(Br)cc3Cl)c(C(=O)NOCCO)cc21 [Selumetinib] + CCN(CCO)CCCOc1ccc2c(Nc3cc(CC(=O)Nc4cccc(F)c4)[nH]n3)ncnc2c1 [AZD2811] (first compound max 10 µM, 7x7, partner max 1 µM) | 0.058 | 0.0298 | -0.0538 | 0.0298 | 0.0253 | -0.0227 | -0.0409 | 0.0352 | -0.0311 | -0.0282 | -0.0317 |  | -0.01 | -0.0206 | 0.0264 | 0.0143 | -0.0434 | 0.0702 | -0.0634 | 0.0097 |
| COc1nnc2ccc(N3CCC(c4ccc(OCCN5CCN(C)C(=O)[C@H]5C)cc4)CC3)nn12 [AZD5153] + Cn1cnc2c(F)c(Nc3ccc(Br)cc3Cl)c(C(=O)NOCCO)cc21 [Selumetinib] (first compound max 1 µM, 7x7, partner max 10 µM) | 0.0496 | 0.0425 | -0.0697 | 0.0049 | 0.0113 | 0.0022 | -0.0166 | -0.001 | -0.0187 | -0.0216 | -0.0169 |  | 0.0303 | 0.0889 | 0.0265 | 0.0577 | 0.0362 | -0.0578 | -0.0441 | -0.031 |
| COc1nnc2ccc(N3CCC(c4ccc(OCCN5CCN(C)C(=O)[C@H]5C)cc4)CC3)nn12 [AZD5153] + CCN(CCO)CCCOc1ccc2c(Nc3cc(CC(=O)Nc4cccc(F)c4)[nH]n3)ncnc2c1 [AZD2811] (first compound max 1 µM, 7x7, partner max 1 µM) | -0.0301 | 0.0529 | -0.008 | -0.0316 | -0.0452 | -0.0311 | -0.0112 | -0.0153 | -0.0663 | -0.0501 | -0.0244 |  | -0.0297 | -0.0003 | -0.0421 | -0.083 | -0.0171 | -0.0238 | -0.0477 | 0.0047 |
| COc1nnc2ccc(N3CCC(c4ccc(OCCN5CCN(C)C(=O)[C@H]5C)cc4)CC3)nn12 [AZD5153] + C[C@@H]1COCCN1C2=NC(=NC(=C2)C3(CC3)[S@](=N)(=O)C)C4=C5C=CNC5=NC=C4 [AZD6738] (first compound max 1 µM, 7x7, partner max 10 µM) | 0.0052 | 0.0628 | 0.0527 | 0.0254 | -0.05 | -0.0091 | 0.0526 | -0.0303 | -0.0066 | -0.0503 | -0.0072 |  | 0.0306 | 0.0624 | -0.0766 | -0.0628 | -0.0191 | -0.0956 | -0.0623 | 0.0026 |
| CS(=O)(=O)CCNCc1ccc(-c2ccc3ncnc(Nc4ccc(OCc5cccc(F)c5)c(Cl)c4)c3c2)o1 [Lapatinib] + C[C@@H](Oc1cc(-c2cnn(C3CCNCC3)c2)cnc1N)c1c(Cl)ccc(F)c1Cl [Crizotinib] (first compound max 10 µM, 7x7, partner max 10 µM) | -0.0165 | -0.0272 | -0.0144 | -0.0079 | -0.0525 | -0.0178 | -0.0327 | -0.0453 | -0.0345 | -0.0111 | -0.0477 |  | 0.0028 | -0.034 | -0.0273 | -0.0342 | 0.0044 | -0.025 | -0.0731 | -0.0359 |
